What was measured:
Type in all cases: cell-based, human
[1] = test system: NCI-H69; experiment: MTT proliferation assay, SCLC cell line NCI-H69 (chemotherapeutic agents with or without AAV-2 infection); conditions: AAV-2 infection 10^4 per cell vs mock infection
Method: (§1) Small cell lung carcinoma cell lines (NCI-H69, NCI-H164, NCI-H209, and NCI-H446) (Cancer Res., 1980, 40, 3502-3507; Cancer Res., 1985, 45, 2913-2923) were cultured in RPMI-1640 medium (Eurobio, Raunheim, Germany). HeLa cells were cultured in DMEN (Eurobio, Raunheim, Germany). All growth media were supplemented with glutamine (Eurobio, 1%), antibiotics (penicillin and streptomycin) and 10% heat-inactivated fetal calf serum (PAA; Liz, Austria). The cultures were incubated at 37° C. in a damp atmosphere with 5% CO2 and tested for mycoplasma contaminations at regular intervals.
The adeno-associated virus type 2 (AAV-2) was replicated in HeLa cells using, adenovirus type 2 (Ad-2) as a helper. […]
The proliferation of the SLCL cells after the infection with AAV-2 and/or treatment with chemotherapeutic agents was determined by the modified MTT test (J. Immunol. Methods, 1983, 56, 55-63). […] The precipitated proteins were pelleted by centrifugation (1000 rpm, 15 min), and 200 ul samples of the supernatant were measured to determine the optical density at 540 nm (OD540), OD690 being used as a reference and a Titertek Multiskan plus MKII densitometer being employed (Lab Systems, Finland). […]
(§2) The AAV-2-infected cells (MOI values as indicated) or mock-infected cells were placed in plates having 24 wells and treated with cisplatin. After six or eight days, the relative proliferation was determined. […]

[2] = test system: NCI-H446; experiment: MTT proliferation assay, SCLC cell line NCI-H446 (chemotherapeutic agents with or without AAV-2 infection); conditions: for Sensitization factor (A/Ao)* 10^4 Ip.AAV/Cell: AAV-2 infection 10^4 per cell vs mock infection
Method: as §1
(§3) The adeno-associated virus type 2 (AAV-2) was replicated in HeLa cells using, adenovirus type 2 (Ad-2) as a helper. AAV was purified in a cesium-chloride gradient and titrated as described in J. Gen. Virol., 1994, 74, 2655-2662. The adenovirus type 2 inocula were clarified supernatants of Ad-2-infected HeLa cells.
(§4) The SCLC cells were suspended in PBS and incubated with purified AAV-2 in the indicated multiplicities of infection (MOI). […]
(§5) The proliferation of the SLCL cells after the infection with AAV-2 and/or treatment with chemotherapeutic agents was determined by the modified MTT test (J. Immunol. Methods, 1983, 56, 55-63). […] The precipitated proteins were pelleted by centrifugation (1000 rpm, 15 min), and 200 ul samples of the supernatant were measured to determine the optical density at 540 nm (OD540), OD690 being used as a reference and a Titertek Multiskan plus MKII densitometer being employed (Lab Systems, Finland).
(§6) The relative proliferation (A/Ao) was defined as the ratio of the absorption (A) measured in the supernatant of AAV-2-infected and/or pharmacon-treated cells, compared with the absorption measured for the supernatant of the mock-infected cells and untreated control cells (Ao). […]
as §2

[3] = test system: NCI-H146; experiment: MTT proliferation assay, SCLC cell line NCI-H146 (chemotherapeutic agents with or without AAV-2 infection); conditions: for Sensitization factor (A/Ao)* 10^4 Ip.AAV/Cell: AAV-2 infection 10^4 per cell vs mock infection
[4] = test system: NCI-H209; experiment: MTT proliferation assay, SCLC cell line NCI-H209 (chemotherapeutic agents with or without AAV-2 infection); conditions: for Sensitization factor (A/Ao)* 10^4 Ip.AAV/Cell: AAV-2 infection 10^4 per cell vs mock infection
Method: as §1, §3, §4, §5, §6, §2

[5] = cells treated only with cisplatin at IC50

SMILES	Sensitization factor (A/Ao)* 10^4 Ip.AAV/Cell [1]	Sensitization factor (A/Ao)* 10^4 Ip.AAV/Cell [2]	Relative proliferation (A/Ao) [2, 5]	Sensitization factor (A/Ao)* 10^4 Ip.AAV/Cell [3]	Sensitization factor (A/Ao)* 10^4 Ip.AAV/Cell [4]	Relative proliferation (A/Ao) [4, 5]	Resistance/susceptibility of the cell line to the agent [3]
N.N.[Cl][Pt][Cl] [Cisplatin, cisplatin]	1.43	2.50	0.59	1.37	2.33	0.5	
COc1cc([C@@H]2c3cc4c(cc3[C@@H](O[C@@H]3O[C@@H]5CO[C@@H](C)O[C@H]5[C@H](O)[C@H]3O)[C@H]3COC(=O)[C@H]23)OCO4)cc(OC)c1O [Etoposide, etoposide]	1.30	3.00		1.38	2.12		highly susceptible

From patent US6743423B1, “Use of adeno-associated viruses for decreasing the radiotherapy-induced or chemotherapy- induced resistance in cancer patients” (Deutsches Krebsforschungszentrum Stiftung des Offentlichen …, priority 1998, dated 2004)
